In patent EP4775577A1, “RAS INHIBITOR” (Tyligand Bioscience (Shanghai) Limited, priority 2023, dated 2025):

Key:
[1] = test system: KRAS G12V mutant NCI-H727 cells; assay: Proliferation inhibition of NCI-H727 cells, 3D CellTiter-Glo assay (Method B); assay type: cell-based, human; settings: Homo sapiens, NCI-H727, 120 h, Method B; 3D culture with 0.65% methylcellulose, 5 days, CTG; read-out: NCI-H727 IC50/nM
Outline: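 Cells grown in 3D medium (RPMI-1640, 10% FBS, 0.65% methylcellulose) overnight, then treated 5 days at 37 °C, 5% CO2 with 9 threefold dilutions from 10 µM top working concentration, duplicate wells. CellTiter-Glo luminescence read; IC50 (nM) fitted by dose-response-inhibition equation.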

[2] = test system: KRAS G12D mutant AGS cells; assay: Proliferation inhibition of AGS cells, CellTiter-Glo assay; assay type: cell-based, human; settings: Homo sapiens, AGS, 72 h, 3 days, CTG; read-out: AGS IC50/nM
Outline: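 AGS cells at 1500 cells/well in F12K + 10% FBS were exposed for 3 days at 37°C to nine 3-fold dilutions from 10 µM top concentration, in duplicate. Viability read by CellTiter-Glo luminescence; IC50 (nM) from dose-response-inhibition fitting.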

Pharmacokinetics in mice = settings: mouse, po
Protocol: Male CD-1 mice, aged 6-8 weeks, were purchased from Zhejiang Vital River Laboratory Animal Co., Ltd.
For the PO administration group, compounds were formulated in 0.5% Tween 80 and 99.5% (0.5%MC (400cp)) vehicle or 0.5%MC (400cp) vehicle to a final concentration of 1 mg/mL or 2 mg/mL for each compound. The drug formulation was administered to CD-1 mice via gavage at a dose of 10 mL/kg. Blood samples were collected from the submandibular vein or other suitable means at 15 min, 30 min, 1 h, 2 h, 4 h, 6 h, 8 h, and 24 h after administration. The blood samples were centrifuged at low temperature for 5 minutes, and the plasma was collected and stored at -80°C for analysis.
10 µL of plasma sample was taken, 200 µL of methanol containing an internal standard as a precipitant was added to precipitate plasma proteins, the compounds to be tested in the plasma was extracted, centrifuged at low temperature, and 10 µL of the supernatant was injected. The drug concentration in blood plasma was analyzed by LC-MS/MS. The pharmacokinetic parameters were calculated using Winnonlin based on the blood drug concentration data at different time points.

[3] = test system: KRAS G12S mutant A549 cells; assay: Proliferation inhibition of A549 cells, 3D CellTiter-Glo assay; assay type: cell-based; settings: Homo sapiens, A549, 120 h, read-out: A549 IC50/nM
Protocol: A549 cells (Nanjing Kebai Biotechnology Co., Ltd., catalog number CBP60084, adherent, culture medium (F12K Nutrient Mixture+10%FBS (GIBCO, Cat#10091-148) at 37°C, 5%CO2, and 95% humidity.
3D Cell Viability Assay: Cells in the logarithmic growth phase were harvested and counted using a platelet counter. Cell viability was assessed using the trypan blue exclusion method to ensure a viability of over 90%. The 3D cell culture medium was prepared by adding 1% MC (methylcellulose, Sigma, Cat#M0512) F-12K medium and 10% FBS. The cell concentration was adjusted to approximately 7407 cells/mL using the 3D medium, and the methylcellulose (MC) content was set to 0.65%. Then, 135 µL of cell suspension was added to each 96-well clear, flat-bottomed, black-walled plate (Greiner, Cat#655096). The cells in the 96-well plates were cultured overnight at 37°C with 5% CO2.
Drug preparation for IC50 assay: A 10-fold drug solution was prepared using culture medium. […] of the drug solution was added to each well of a 96-well plate seeded with cells to achieve a working concentration of up to 10 µM, with a 3× dilution, and 9 concentrations. 2 replicate wells for each drug concentration were set. The cells in the drug-treated 96-well plates were cultured at 37°C and 5% CO^2 for additional5 days, then CTG assay (CellTiter-Glo® Luminescent Cell Viability Assay (Promega, Cat#G7573)) were performed.
The cell plate was equilibrated to room temperature for 30 minutes and the CTG reagent was thawed. 75 µL of CTG solution was added to each well for detection, and the plate was shaken on an orbital shaker for 5 minutes to lyse the cells. The cell plate was placed at room temperature for 25 minutes to stabilize the cryo-luminescence signal and the cryo-luminescence value was read (EnVision® multi-plate reader, PerkinElmer#2105).
Data was analyzed using GraphPad Prism software. The dose-response-inhibition equation was used to fit the data to obtain the dose-response curve, and the IC50 value (nM) was calculated accordingly. [formula]

[4] = test system: human lung cancer cells NCI-H441 with KRAS-G12V mutation; assay: Antitumor effect in NCI-H441 subcutaneous xenograft model; assay type: in vivo, NU/NU mice; settings: 20 mpk, PO
Protocol: NCI-H441 cells were purchased from ATCC (catalog number: HTB-174). Male NU/NU mice were purchased from Jiangsu Jicui Yaokang Biotechnology Co., Ltd.
NCI-H441 cells were cultured in RPMI-1640 medium containing 10% FBS. Cells in the logarithmic growth phase were collected and resuspended in PBS to an appropriate concentration for subcutaneous tumor inoculation in mice. Experimental mice were subcutaneously inoculated in the right posterior back at a seeding density of 1×10^6 cells/mouse+Matrigel, with a seeding volume of 0.1 mL. When the average tumor volume reached ~150 mm^3, mice were randomly assigned to groups based on tumor size and body weight for drug administration. Drug administration began immediately after grouping, and the day of administration was considered day 0. The drug was administered to the mice twice daily via gavage at doses of 10 mpk, 20 mpk, 30 mpk, or a solvent control (0.5% Tween 80+99.5% of 0.5% MC (400 cp) or 0.5% MC (400 cp)). During the experiment, mouse body weight and tumor size were measured twice weekly. Tumor size was calculated using the formula: Tumor volume (mm^3)=0.5×(Tumor long diameter × Tumor short diameter^2). Relative tumor inhibition rate (TGI) (%): TGI%=[1-(Average tumor volume at the end of treatment in a given treatment group - Average tumor volume at the start of treatment in the treatment group) / (Average tumor volume at the end of treatment in the solvent control group - Average tumor volume at the start of treatment in the solvent control group)] × 100%.

Structure (SMILES) | IC50 [1] [nM] | IC50 [2] [nM] | AUC(0-t) at 8 h (Pharmacokinetics in mice; plasma, 20 mg/kg) [ng·h/mL] | AUC(0-t) at 8 h (Pharmacokinetics in mice; in vivo, 20 mg/kg) [ng·h/mL] | AUC(0-t) at 8 h (Pharmacokinetics in mice; plasma, 10 mg/kg) [ng·h/mL] | IC50 [3] [nM] | Tumor volume (mm^3) (day 16) ([4]; BID×17) | TGI% ([4]; BID×17, day 16) [%]
CCN1CC/C(=C\F)[C@](C)(COc2nc(N3Cc4c(COC)c(C(=O)N(C)C)nn4CC[C@@H]3C)c3cc(Cl)c(-c4c(F)ccc5sc(N)c(C#N)c45)c(C(F)F)c3n2)C1 (atropisomer, axis not shown) [Example 241A] | 6.5 | 8.3 | 1660 | – | – | – | – | –
[2H]C([2H])([2H])C([2H])([2H])N1CC/C(=C\F)[C@](C)(COc2nc(N3Cc4c(COC)c(C(=O)N(C)C)nn4CC[C@@H]3C)c3cc(Cl)c(-c4c(F)ccc5sc(N)c(C#N)c45)c(F)c3n2)C1 (atropisomer, axis not shown) [Example 243A] | < 1.5 | < 1.5 | 9960 | – | – | – | – | –
CCN1CC/C(=C\F)[C@](C)(COc2nc(N3Cc4cc(C(=O)N(C)C)nn4CC[C@@H]3C)c3cc(Cl)c(-c4c(F)ccc5sc(N)c(C#N)c45)c(F)c3n2)C1 (atropisomer, axis not shown) [Example 246A] | < 1.5 | < 1.5 | 1040 | – | – | – | – | –
[2H]C([2H])([2H])C([2H])([2H])N1CC/C(=C\F)[C@](C)(COc2nc(N3Cc4c(COC)c(C(=O)N(C)C)nn4CC[C@@H]3C)c3cc(Cl)c(-c4c(F)ccc5sc(N)c(C#N)c45)c(C)c3n2)C1 (atropisomer, axis not shown) [Example 249A] | < 1.5 | 2.3 | – | 5360 | – | – | – | –
CCN1CC/C(=C\F)[C@](C)(COc2nc(N3Cc4cc(C(=O)N(C)C)nn4CC[C@@H]3C)c3cc(Cl)c(-c4c(F)ccc5sc(N)c(C#N)c45)c(C)c3n2)C1 (single isomer, unassigned) [Example 178A] | < 1.5 | 1.9 | – | – | 1190 | – | – | –
CCN1CC/C(=C\F)[C@](C)(COc2nc(N3Cc4c(COC)c(C(=O)N(C)C)nn4CC[C@@H]3C)c3cc(Cl)c(-c4c(F)ccc5sc(N)c(C#N)c45)c(C)c3n2)C1 (single isomer, unassigned) [Example 229A] | < 1.5 | 1.7 | – | 4490 | – | – | – | –
CCN1CC/C(=C\F)[C@](C)(COc2nc(N3Cc4c(O)c(C(=O)N(C)C)nn4CC[C@@H]3C)c3cc(Cl)c(-c4c(F)ccc5sc(N)c(C#N)c45)c(F)c3n2)C1 (single isomer, unassigned) [Example 233A] | < 1.5 | < 1.5 | – | 822 | – | – | – | –
[2H]C([2H])([2H])N(C(=O)c1nn2c(c1COC)CN(c1nc(OC([2H])([2H])[C@]3(C)CN(CC)CC/C3=C\F)nc3c(F)c(-c4c(F)ccc5sc(N)c(C#N)c45)c(Cl)cc13)[C@@H](C)CC2)C([2H])([2H])[2H] (single isomer, unassigned) [Example 235A] | < 1.5 | < 1.5 | 2990 | – | – | – | – | –
CCOc1c(C(=O)N(C)C)nn2c1CN(c1nc(OC[C@]3(C)CN(CC)CC/C3=C\F)nc3c(F)c(-c4c(F)ccc5sc(N)c(C#N)c45)c(Cl)cc13)[C@@H](C)CC2 (single isomer, unassigned) [Example 236A] | 1.5 | 2.7 | 2820 | – | – | – | – | –
CCN1CC/C(=C\F)[C@](C)(COc2nc(N3Cc4c(COC)c(C(=O)N(C)C)nn4CC[C@@H]3C)c3cc(Cl)c(-c4c(F)cc(F)c5sc(N)c(C#N)c45)c(F)c3n2)C1 (single isomer, unassigned) [Example 237A] | < 1.5 | < 1.5 | 3910 | – | – | – | – | –
CC[C@H]1CCn2nc(C(=O)N(C)C)c(COC)c2CN1c1nc(OC[C@]2(C)CN(CC)CC/C2=C\F)nc2c(F)c(-c3c(F)ccc4sc(N)c(C#N)c34)c(Cl)cc12 (single isomer, unassigned) [Example 240A] | < 1.5 | 2.5 | 2920 | – | – | – | – | –
CCN1CC/C(=C\F)[C@](C)(COc2nc(N3CCCn4nc(C(=O)N(C)C)c(Cl)c4C3)c3cc(Cl)c(-c4c(F)ccc5sc(N)c(C#N)c45)c(F)c3n2)C1 (single isomer, unassigned) [Example 256A] | < 1.5 | 1.5 | 1380 | – | – | – | – | –
[2H]C([2H])([2H])N1CC/C(=C\F)[C@](C)(COc2nc(N3Cc4c(COC)c(C(=O)N(C)C)nn4CC[C@@H]3C)c3cc(CC)c(-c4c(F)ccc5sc(N)c(C#N)c45)c(F)c3n2)C1 (single isomer, unassigned) [Example 258A] | < 1.5 | 1.9 | 1320 | – | – | – | – | –
CCN1CC/C(=C\F)[C@](C)(COc2nc(N3Cc4cc(C(C)=O)nn4CC[C@@H]3C)c3cc(Cl)c(-c4c(F)ccc5sc(N)c(C#N)c45)c(F)c3n2)C1 (single isomer, unassigned) [Example 268A] | 4 | 3.5 | – | – | 907 | – | – | –
CN1CC/C(=C\F)[C@](C)(COc2nc(N3CCCn4nc(C(=O)N(C)C)c(Cl)c4C3)c3cc(C(F)(F)F)c(-c4cccc5sc(N)c(C#N)c45)c(F)c3n2)C1 [Example 124] | 2.2 | < 1.5 | – | – | – | 23.9 | – | –
CN1CC/C(=C\F)[C@](C)(COc2nc(N3CCCn4nc(C(=O)N(C)C)c(C#N)c4C3)c3cc(C(F)(F)F)c(-c4c(F)ccc5sc(N)c(C#N)c45)c(F)c3n2)C1 [Example 150] | < 1.5 | < 1.5 | – | – | – | 40.3 | – | –
CN1CC/C(=C\F)[C@](C)(COc2nc(N3CCCn4nc(C(=O)N(C)C)c(Cl)c4C3)c3cc(C(F)(F)F)c(-c4c(F)ccc5sc(N)c(C#N)c45)c(F)c3n2)C1 [Example 160] | < 1.5 | < 1.5 | – | – | – | 11.1 | – | –
CCN1CCC(C(F)F)C(C)(COc2nc(N3Cc4c(COC)c(C(=O)N(C)C)nn4CCC3C)c3cc(Cl)c(-c4c(F)ccc5sc(N)c(C#N)c45)c(F)c3n2)C1 (stereo not shown) [Example 251A] | < 1.5 | 1.8 | 1960 | – | – | – | – | –
[2H]C([2H])([2H])N1CCC(=CF)C(C)(COc2nc(N3Cc4cc(C(=O)N(C)C)nn4CCC3C)c3cc(Cl)c(-c4c(F)ccc5sc(N)c(C#N)c45)c(F)c3n2)C1 (stereo not shown) [Example 255A] | < 1.5 | < 1.5 | – | – | – | – | 259 | 74
